Here are results for 13 compounds from ChEMBL document CHEMBL5120960, “Unveiling the Structure-Activity Relationships at the Orthosteric Binding Site of P2X Ion Channels: The Route to Selectivity” (J Med Chem, 2022).

Holding throughout (assay type): cell-based
One test addresses T1, P2X purinoceptor 1 (Homo sapiens, UniProt P51575).
T1 sequence (P51575 whole entry): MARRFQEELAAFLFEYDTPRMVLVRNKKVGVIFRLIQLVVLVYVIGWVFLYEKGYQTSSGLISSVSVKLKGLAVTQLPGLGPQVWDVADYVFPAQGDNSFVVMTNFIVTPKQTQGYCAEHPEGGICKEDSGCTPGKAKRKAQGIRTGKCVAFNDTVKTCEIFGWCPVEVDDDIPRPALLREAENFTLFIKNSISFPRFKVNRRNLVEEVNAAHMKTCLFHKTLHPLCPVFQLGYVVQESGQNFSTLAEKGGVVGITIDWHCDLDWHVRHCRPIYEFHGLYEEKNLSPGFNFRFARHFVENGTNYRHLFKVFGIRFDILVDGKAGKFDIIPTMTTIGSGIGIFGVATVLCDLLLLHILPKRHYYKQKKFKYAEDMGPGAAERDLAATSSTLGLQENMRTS
As to the kind of experiment: […] activity at human P2X1R expressing CHO cells assessed as reduction in intracellular Ca2+ influx pretreated with Fluo-4 for 1 hr followed by compound addition and further incubated for 30 mins in presence of ATP by multimode plate reader analysis.

The next test has as its target T2, P2X purinoceptor 2 (Homo sapiens, UniProt Q9UBL9).
T2 sequence (Q9UBL9 whole entry): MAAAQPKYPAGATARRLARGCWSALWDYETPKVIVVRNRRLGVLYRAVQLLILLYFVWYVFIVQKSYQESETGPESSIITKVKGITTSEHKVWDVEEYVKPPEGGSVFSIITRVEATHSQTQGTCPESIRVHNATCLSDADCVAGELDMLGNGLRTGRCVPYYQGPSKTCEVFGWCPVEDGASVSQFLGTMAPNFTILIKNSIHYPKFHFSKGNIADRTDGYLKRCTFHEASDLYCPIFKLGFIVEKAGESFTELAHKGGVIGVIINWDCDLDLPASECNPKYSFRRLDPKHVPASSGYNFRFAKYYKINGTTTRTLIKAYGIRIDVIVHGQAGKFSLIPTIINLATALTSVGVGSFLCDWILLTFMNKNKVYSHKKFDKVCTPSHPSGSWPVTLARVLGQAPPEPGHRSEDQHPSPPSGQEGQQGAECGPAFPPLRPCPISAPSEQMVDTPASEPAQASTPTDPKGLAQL
As to the kind of experiment: […] activity at human P2X2R expressing CHO cells assessed as reduction in intracellular Ca2+ influx pretreated with Fluo-4 for 1 hr followed by compound addition and further incubated for 30 mins in presence of ATP by multimode plate reader analysis.

The target of a further test is T3, P2X purinoceptor 3 (Homo sapiens, UniProt P56373).
T3 sequence (P56373 whole entry): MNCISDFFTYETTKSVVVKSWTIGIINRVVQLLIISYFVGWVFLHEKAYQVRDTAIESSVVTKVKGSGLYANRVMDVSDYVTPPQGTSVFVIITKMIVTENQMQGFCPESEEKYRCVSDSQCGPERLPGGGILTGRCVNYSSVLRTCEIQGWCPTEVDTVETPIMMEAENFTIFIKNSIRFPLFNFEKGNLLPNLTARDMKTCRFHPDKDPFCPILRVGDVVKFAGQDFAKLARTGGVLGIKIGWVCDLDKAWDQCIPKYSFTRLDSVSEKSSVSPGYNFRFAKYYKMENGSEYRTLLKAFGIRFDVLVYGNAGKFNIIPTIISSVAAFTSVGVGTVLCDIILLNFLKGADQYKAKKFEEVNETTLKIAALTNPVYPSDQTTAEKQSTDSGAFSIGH
As to the kind of experiment: […] activity at human P2X3R expressing CHO cells assessed as reduction in intracellular Ca2+ influx pretreated with Fluo-4 for 1 hr followed by compound addition and further incubated for 30 mins in presence of ATP by multimode plate reader analysis.

The target of test [1] is T4, P2X2/P2X3 heterotrimeric receptor (Homo sapiens, UniProt P56373+Q9UBL9).
T4 sequence (Q9UBL9 whole entry): T2 sequence (Q9UBL9 whole entry)
T4 sequence (P56373 whole entry): T3 sequence (P56373 whole entry)
As to the kind of experiment: […] activity at human P2X2R/P2X3R expressing CHO cells assessed as reduction in intracellular Ca2+ influx pretreated with Fluo-4 for 1 hr followed by compound addition and further incubated for 30 mins in presence of ATP by multimode plate reader analysis.

The target in another test is T5, P2X purinoceptor 4 (Homo sapiens, UniProt Q99571).
T5 sequence (Q99571 whole entry): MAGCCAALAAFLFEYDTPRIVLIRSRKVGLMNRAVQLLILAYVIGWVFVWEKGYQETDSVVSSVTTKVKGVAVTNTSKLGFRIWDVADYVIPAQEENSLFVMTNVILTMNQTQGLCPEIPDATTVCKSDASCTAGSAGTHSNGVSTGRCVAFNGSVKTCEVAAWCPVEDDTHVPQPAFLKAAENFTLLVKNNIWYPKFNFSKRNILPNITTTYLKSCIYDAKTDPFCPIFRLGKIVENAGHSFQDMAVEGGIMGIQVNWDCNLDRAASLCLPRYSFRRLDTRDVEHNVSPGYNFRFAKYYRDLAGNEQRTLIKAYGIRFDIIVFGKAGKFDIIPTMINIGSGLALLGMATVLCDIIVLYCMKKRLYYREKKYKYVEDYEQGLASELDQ
As to the kind of experiment: […] activity at human P2X4R expressing HEK293 cells assessed as reduction in intracellular Ca2+ influx pretreated with Fluo-4 for 1 hr followed by compound addition and further incubated for 30 mins in presence of ATP by multimode plate reader analysis.

In test [2] the target is T6, P2X purinoceptor 7 (Homo sapiens, UniProt Q99572).
T6 sequence (Q99572 whole entry): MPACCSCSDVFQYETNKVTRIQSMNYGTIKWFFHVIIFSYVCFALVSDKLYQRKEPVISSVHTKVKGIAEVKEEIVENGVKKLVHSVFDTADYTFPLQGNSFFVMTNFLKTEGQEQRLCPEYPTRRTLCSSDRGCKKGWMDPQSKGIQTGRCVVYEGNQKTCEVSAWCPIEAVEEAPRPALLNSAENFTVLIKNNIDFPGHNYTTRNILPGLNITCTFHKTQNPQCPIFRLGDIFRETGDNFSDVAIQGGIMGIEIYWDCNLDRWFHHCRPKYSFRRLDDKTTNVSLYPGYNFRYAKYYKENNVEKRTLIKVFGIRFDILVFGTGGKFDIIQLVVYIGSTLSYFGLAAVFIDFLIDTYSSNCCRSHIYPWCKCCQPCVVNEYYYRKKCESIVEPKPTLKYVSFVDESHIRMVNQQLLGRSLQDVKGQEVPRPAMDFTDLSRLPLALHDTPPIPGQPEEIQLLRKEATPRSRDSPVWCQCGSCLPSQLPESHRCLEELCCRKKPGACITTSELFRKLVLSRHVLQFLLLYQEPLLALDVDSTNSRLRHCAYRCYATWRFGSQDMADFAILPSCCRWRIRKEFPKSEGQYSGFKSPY
As to the kind of experiment: […] activity at human P2X7R expressing HEK293 cells assessed as reduction in intracellular Ca2+ influx pretreated with Fluo-4 for 1 hr followed by compound addition and further incubated for 30 mins in presence of ATP by multimode plate reader analysis.

The target of test [3] is T6, P2X purinoceptor 7. As to the kind of experiment: […] activity at human P2X7R expressed in HEK293 cells assessed as reduction in YO-PRO-1 iodide dye uptake preincubated for 30 mins followed by YO-PRO-1 iodide addition and measured after 2 hrs by fluorescence based multimode plate reader analysis.

For the compound `Nc1ncnc2c1ncn2[C@@H]1O[C@H](COP(=O)(O)OP(=O)(O)OP(=O)(O)O)[C@@H](O)[C@H]1F`, the IC50 was more than 100 µM at P2X purinoceptor 1; 5.62 µM at P2X purinoceptor 2; 10.5 µM at P2X purinoceptor 3; 5.37 µM in test [1]; 2.75 µM on P2X purinoceptor 4; more than 100 µM at P2X purinoceptor 7 [2]. At P2X purinoceptor 7 [3], the IC50 was more than 100 µM.

For the compound `[N-]=[N+]=Nc1nc2c(N)ncnc2n1[C@@H]1O[C@H](COP(=O)(O)OP(=O)(O)OP(=O)(O)O)[C@@H](O)[C@H]1O`, the IC50 (on P2X purinoceptor 1; on P2X purinoceptor 2; on P2X purinoceptor 3; in test [1]; at P2X purinoceptor 4; at P2X purinoceptor 7 [2]) was more than 100 µM each time. Besides, the IC50 on P2X purinoceptor 7 [3] is more than 100 µM.

Take `Nc1ncnc2c1ncn2[C@@H]1O[C@H](COP(=O)(O)OP(=O)(O)OP(=O)(O)O)[C@@H](O)[C@@H]1O`: the IC50 at P2X purinoceptor 1 was more than 100 µM; on P2X purinoceptor 2, more than 100 µM; at P2X purinoceptor 3 it was more than 100 µM; in test [1] it was more than 100 µM; on P2X purinoceptor 4, 10.5 µM; on P2X purinoceptor 7 [2], more than 100 µM. The IC50 on P2X purinoceptor 7 [3] was more than 100 µM.

Consider `Nc1ncnc2c1ncn2[C@@H]1O[C@H](COP(=O)(O)OP(=O)(O)OP(=O)(O)O)[C@@H](O)[C@H]1N`, for which the IC50 at P2X purinoceptor 1 was 6.46 µM; on P2X purinoceptor 2 it was more than 100 µM; at P2X purinoceptor 3, 4.27 µM; in test [1] it was 0.363 µM; at P2X purinoceptor 4 it was more than 100 µM; on P2X purinoceptor 7 [2], more than 100 µM. Further, on P2X purinoceptor 7 [3], the IC50 is more than 100 µM.

Take `CCCCNc1ncnc2c1ncn2[C@@H]1O[C@H](COP(=O)(O)OP(=O)(O)OP(=O)(O)O)[C@@H](O)[C@H]1O`: the IC50 at P2X purinoceptor 1 is more than 100 µM; on P2X purinoceptor 2 it was more than 100 µM; at P2X purinoceptor 3, 30.2 µM; in test [1] it was 0.692 µM; at P2X purinoceptor 4, more than 100 µM; on P2X purinoceptor 7 [2], more than 100 µM. For the same compound, on P2X purinoceptor 7 [3], the IC50 is more than 100 µM.

Consider `O=P(O)(O)OP(=O)(O)OP(=O)(O)OC[C@H]1O[C@@H](n2cnc3c(Nc4ccccc4)ncnc32)[C@H](O)[C@@H]1O`, for which the IC50 is more than 100 µM at P2X purinoceptor 1; 0.00372 µM on P2X purinoceptor 2; 0.209 µM at P2X purinoceptor 3; 0.158 µM in test [1]; 0.891 µM on P2X purinoceptor 4; more than 100 µM on P2X purinoceptor 7 [2]. Besides, the IC50 at P2X purinoceptor 7 [3] is more than 100 µM.

On to `O=P(O)(O)OP(=O)(O)OP(=O)(O)OC[C@H]1O[C@@H](n2cnc3c(NCc4ccccc4)ncnc32)[C@H](O)[C@@H]1O`, for which the IC50 at P2X purinoceptor 1 was more than 100 µM; on P2X purinoceptor 2 it was 3.98 µM; at P2X purinoceptor 3 it was more than 100 µM; in test [1], 2.69 µM; on P2X purinoceptor 4 it was more than 100 µM; at P2X purinoceptor 7 [2], more than 100 µM. The IC50 on P2X purinoceptor 7 [3] is more than 100 µM.

Regarding `CO[C@@H]1[C@H](O)[C@@H](COP(=O)(O)OP(=O)(O)OP(=O)(O)O)O[C@H]1n1cnc2c(N)ncnc21`, the IC50 (on P2X purinoceptor 1; at P2X purinoceptor 2; on P2X purinoceptor 3; in test [1]; on P2X purinoceptor 4; on P2X purinoceptor 7 [2]) was more than 100 µM each time. For the same compound, the IC50 on P2X purinoceptor 7 [3] is more than 100 µM.

For `O=P(O)(O)OP(=O)(O)OP(=O)(O)OC[C@H]1O[C@@H](n2cnc3c2ncn2ccnc32)[C@H](O)[C@@H]1O`, the IC50 on P2X purinoceptor 1 is more than 100 µM; at P2X purinoceptor 2, 0.417 µM; on P2X purinoceptor 3, 1 µM; in test [1], 0.282 µM; at P2X purinoceptor 4 it was more than 100 µM; on P2X purinoceptor 7 [2], more than 100 µM. Further, on P2X purinoceptor 7 [3], the half-maximal inhibitory concentration (IC50) is more than 100 µM.

Consider `CNc1ncnc2c1ncn2[C@@H]1O[C@H](COP(=O)(O)OP(=O)(O)OP(=O)(O)O)[C@@H](O)[C@H]1O`, for which the IC50 on P2X purinoceptor 1 was more than 100 µM; on P2X purinoceptor 2, more than 100 µM; at P2X purinoceptor 3, 1.29 µM; in test [1] it was 0.263 µM; on P2X purinoceptor 4, more than 100 µM; on P2X purinoceptor 7 [2], more than 100 µM. Further, at P2X purinoceptor 7 [3], the IC50 is more than 100 µM.

Take `O=c1[nH]c2cncnc2n1[C@@H]1O[C@H](COP(=O)(O)OP(=O)(O)OP(=O)(O)O)[C@@H](O)[C@H]1O`: the IC50 is more than 100 µM at P2X purinoceptor 1; more than 100 µM on P2X purinoceptor 2; 11 µM at P2X purinoceptor 3; more than 100 µM in test [1]; more than 100 µM on P2X purinoceptor 4; more than 100 µM on P2X purinoceptor 7 [2]. Also, the IC50 at P2X purinoceptor 7 [3] was more than 100 µM.

As for `O=P(O)(O)OP(=O)(O)OP(=O)(O)OC[C@H]1O[C@@H](n2cnc3c(Cl)ncnc32)[C@H](O)[C@@H]1O`, the IC50 is 0.00355 µM on P2X purinoceptor 1; 0.0871 µM on P2X purinoceptor 2; 0.741 µM on P2X purinoceptor 3; 0.129 µM in test [1]; more than 100 µM at P2X purinoceptor 4; more than 100 µM on P2X purinoceptor 7 [2]. Besides, the IC50 at P2X purinoceptor 7 [3] is more than 100 µM.

For the compound `O=P(O)(O)OP(=O)(O)OP(=O)(O)OC[C@H]1O[C@@H](n2cnc3c(S)ncnc32)[C@H](O)[C@@H]1O`, the IC50 on P2X purinoceptor 1 was 1.51 µM; at P2X purinoceptor 2, more than 100 µM; on P2X purinoceptor 3, 1.51 µM; in test [1] it was 0.00832 µM; at P2X purinoceptor 4, more than 100 µM; at P2X purinoceptor 7 [2], more than 100 µM. In addition, the IC50 at P2X purinoceptor 7 [3] was more than 100 µM.
